Test [1] deals with T1, Neutrophil elastase (Homo sapiens) (UniProt P08246).
T1 sequence (whole entry): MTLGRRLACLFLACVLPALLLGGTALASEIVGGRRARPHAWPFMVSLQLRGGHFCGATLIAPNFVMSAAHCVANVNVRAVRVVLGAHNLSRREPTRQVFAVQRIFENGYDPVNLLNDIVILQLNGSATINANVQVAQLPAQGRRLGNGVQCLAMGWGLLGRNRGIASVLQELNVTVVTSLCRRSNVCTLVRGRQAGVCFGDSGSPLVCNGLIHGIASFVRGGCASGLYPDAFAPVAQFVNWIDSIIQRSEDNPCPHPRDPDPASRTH

For test [2], the target named is T2, Neutrophil elastase (Homo sapiens, UniProt P08246).
T2 sequence (P08246 whole entry): T1 sequence (whole entry)
Put plainly: In vitro inhibition of Human Leukocyte Elastase (HLE).

In test [3] the target is T1, Neutrophil elastase (Homo sapiens). The source holds these as a separate data set.
Description: Second-order rate constant for time-dependent inactivation of leukocyte elastase
For test [4] the target is unchanged. The experiment in a line: Second-order rate constant for time-dependent inactivation of Human Leukocyte Elastase was determined; G means no time-dependent inhibition was observed.
Test [5] shares this target. The source holds these as a separate data set.
Description: Second-order rate constant for time-dependent inactivation of Human Leukocyte Elastase was determined; H means an inverse progress curve was observed

The text below walks through data of ChEMBL document CHEMBL1124911, “Inhibition of human leukocyte elastase. 2. Inhibition by substituted cephalosporin esters and amides” (J Med Chem, 1990).

pIC50: −log10 of the molar value. Bounds are passed on as bounds.

In turn, `COC(=O)C1=C(COC(C)=O)CS(=O)(=O)[C@@H]2[C@@H](OC)C(=O)N12` returned a K obs / 1 in test [1] of 17000 M⁻¹ s⁻¹. The pIC50 (as a rule, the negative decadic logarithm of the IC50, by convention in mol/L) in test [2] is 6.70.

For the molecule `CO[C@H]1C(=O)N2C(C(=O)NC(C)(C)C)=C(COC(C)=O)CS(=O)(=O)[C@H]12`, in test [3], the K obs / 1 is 2200 M⁻¹ s⁻¹. In addition, the pIC50 in test [2] was 6.10.

In the case of `CO[C@H]1C(=O)N2C(C(=O)OCc3ccc(C(=O)OC(C)(C)C)cc3)=C(COC(C)=O)CS(=O)(=O)[C@H]12`, the “K obs / 1” value in test [4] was “No time-dependent inhibition was observed”. In test [2], this molecule showed a pIC50 of 6.40.

`CO[C@H]1C(=O)N2C(C(=O)OCc3ccccc3)=C(COC(C)=O)CS(=O)(=O)[C@H]12`: in test [4], the “K obs / 1” value is “No time-dependent inhibition was observed”. Also, the pIC50 in test [2] was 7.15.

Molecule `CO[C@H]1C(=O)N2C(C(=O)N(C)CC(=O)O)=C(COC(C)=O)CS(=O)(=O)[C@H]12` gave a K obs / 1 in test [3] of 300 M⁻¹ s⁻¹. In test [2], this molecule had a pIC50 of 5.30.

In the case of `COC(=O)CN(C)C(=O)C1=C(COC(C)=O)CS(=O)(=O)[C@@H]2[C@@H](OC)C(=O)N12`, in test [3], the K obs / 1 worked out at 9500 M⁻¹ s⁻¹.

`CO[C@H]1C(=O)N2C(C(=O)NCC(=O)O)=C(COC(C)=O)CS(=O)(=O)[C@H]12`: the pIC50 in test [2] is below 4.30.

The molecule `CO[C@H]1C(=O)N2C(C(=O)N(C)C)=C(COC(C)=O)CS(=O)(=O)[C@H]12` showed a K obs / 1 in test [3] of 3900 M⁻¹ s⁻¹. For the same molecule, the pIC50 in test [2] is 5.70.

On to `CO[C@H]1C(=O)N2C(C(=O)OCc3ccc(C(C)(C)C)cc3)=C(COC(C)=O)CS(=O)(=O)[C@H]12`, for which, in test [5], the “K obs / 1” value is recorded as “Inverse progress curve was observed”. Moreover, in test [2], the pIC50 is 6.70.

In the case of `CO[C@H]1C(=O)N2C(C(=O)N3CCCC3)=C(COC(C)=O)CS(=O)(=O)[C@H]12`, the K obs / 1 in test [3] came to 27000 M⁻¹ s⁻¹.

As for `COc1ccc(COC(=O)C2=C(COC(C)=O)CS(=O)(=O)[C@@H]3[C@@H](OC)C(=O)N23)cc1`, the “K obs / 1” value in test [5] was “Inverse progress curve was observed”. The pIC50 in test [2] was 7.00.

The molecule `CO[C@H]1C(=O)N2C(C(=O)OC(C)(C)C)=C(COC(C)=O)CS(=O)(=O)[C@H]12` yielded a K obs / 1 in test [1] of 16000 M⁻¹ s⁻¹.

Regarding `CO[C@H]1C(=O)N2C(C(=O)N(C)Cc3ccc(C(=O)O)cc3)=C(COC(C)=O)CS(=O)(=O)[C@H]12`, the K obs / 1 in test [3] amounted to 8600 M⁻¹ s⁻¹. This molecule also gave a pIC50 in test [2] of 6.40.

As for `CO[C@H]1C(=O)N2C(C(=O)N(C)CCC(=O)O)=C(COC(C)=O)CS(=O)(=O)[C@H]12`, the K obs / 1 in test [3] is 500 M⁻¹ s⁻¹.

`CO[C@H]1C(=O)N2C(C(=O)N3CCOCC3)=C(COC(C)=O)CS(=O)(=O)[C@H]12` had a K obs / 1 in test [3] of 35000 M⁻¹ s⁻¹.

In test [3], `CCCC[C@H](NC(=O)OC(C)(C)C)[C@@H](O)C(=O)O[C@H]1C[C@@]2(O)[C@@H](OC(=O)c3ccccc3)[C@@H]3[C@]4(OC(C)=O)CO[C@@H]4C[C@H](O)[C@@]3(C)[C@@H](O)[C@H](OC(C)=O)C(=C1C)C2(C)C` showed a K obs / 1 of 900 M⁻¹ s⁻¹.

The molecule `CO[C@H]1C(=O)N2C(C(=O)N(C)CC(=O)OC(C)(C)C)=C(COC(C)=O)CS(=O)(=O)[C@H]12` showed a pIC50 in test [2] of 6.70.

`CCOC(=O)COC(=O)C1=C(COC(C)=O)CS(=O)(=O)[C@@H]2[C@@H](OC)C(=O)N12` gave a pIC50 in test [2] of 7.00.

As to `CO[C@H]1C(=O)N2C(C(=O)O)=C(COC(C)=O)CS(=O)(=O)[C@H]12`, the pIC50 in test [2] was below 4.30.

In test [3], `COC(=O)CCN(C)C(=O)C1=C(COC(C)=O)CS(=O)(=O)[C@@H]2[C@@H](OC)C(=O)N12` registered a K obs / 1 of 6200 M⁻¹ s⁻¹.

In the case of `CO[C@H]1C(=O)N2C(C(=O)NCCC(=O)O)=C(COC(C)=O)CS(=O)(=O)[C@H]12`, the pIC50 in test [2] was below 4.30.
